From patent US5595730A, “Lactate dehydrogenase inhibitors in cosmetic compositions” (priority 1996, dated 1997)
Where two headings read alike, the source gives them in different places.

Key:
[1] = tested on: Fibroblast Lactate Dehydrogenase; experiment: Fibroblast lactate dehydrogenase (LDH) inhibition, cell lysate; assay type: biochemical, human
Procedure: (§1) All reagents were purchased from Sigma Chemical Co., St. Louis, Mo., USA. Sigma procedure No. 500 was modified for our purposes. One mL of pyruvate (pH=7.5) substrate (Sigma […]-1) was added to a vial containing 1 mg NADH (Sigma 340-101). In a 96-well plate, the following components were added to each test well: 10 μl pyruvate/NADH mixture, and 10 μl cell lysate. For preparation cell lysates, neonatal human keratinocytes or fibroblasts (Clonetic Corp., San Diego, Calif.) were cultured in tissue culture plates (Corning, USA). Cells were scraped in PBS (pH=7.4) and this solution was used as a source of L-lactate dehydrogenase. If such cell lysate was not available, a commercial preparation of L-lactic dehydrogenase (E.C.1.1.1.27), Sigma L9889, from porcine heart could be used in place of the cell lysate. For positive control, the inhibitor was replaced with 10 μl of PBS. For blank determination, the lysate or enzyme was replaced with […]. After mixing, the plate was incubated for 30 minutes at 37° C. Then 20 μl of color reagent (Sigma 505-2) was added to each well. After 20 minutes at room temperature, 150 μl of 0.4N NaOH was added, and the plate was read for absorbance at 490 nm in a Dynatech MR 7000 Microplate Reader. To calculate % inhibition, the control activity (CA) was first determined by subtracting the absorbance of the positive control from the blank. Then the activity in the presence of the inhibitor (IA) was calculated by subtracting the appropriate absorbance from the blank. % Inhibition was then calculated as: ((CA-IA)/CA)*100.

[2] = tested on: Normal human epidermal keratinocytes (NHEK); experiment: Keratinocyte proliferation (DNA content, fluorometric); assay type: cell-based; conditions: for activation at 313 µM / activation at 625 µM / activation at 1250 µM / activation at 2500 µM / activation at 5000 µM: Homo sapiens, NHEK, 72 h
Procedure: Normal human epidermal keratinocytes (NHEK) derived from neonatal foreskin were used for all experiments. Media were purchased from Clonetics Corp., San Diego, Calif. Cell stocks frozen in passage 2 were grown in Keratinocyte Growth Medium (KGM) and passaged when 70-80% confluent. Cells were seeded in 96 well plates (Corning) at a density of 7500 cells/well in KGM. After 24 hours, cells were rinsed and dosed with test compounds in 200 μl of Keratinocyte Basal Medium (KBM). Plates were incubated for three days at 37° C., 5% CO2. Cell proliferation was estimated by assaying for DNA content by a fluorometric method described by Rago et al. (Analytical Biochemistry, 191:31-34, 1990). Medium was removed and cells were rinsed with phosphate buffered saline solution. 100 μl of sterile distilled water was added to each well and plates were frozen at -70° C. for one and a half hours. Plates were thawed for one hour at which time 100 μl of a 20 ug/ml solution of Bisbenzimide H33258 fluorochrome (Calbiochem Corp., La Jolla, Calif.) was added to each well. The fluorochrome was prepared just prior to use in 10 mM Tris, 1 mM EDTA, 4M NaCI, pH 7.4. Plates were read in a Millipore Cytofluor fluorescent plate reader to quantify DNA (excitation 360 nm, emission 460 nm). Percent increase over control was calculated from blank-corrected readings as (treated-untreated)/(untreated)*100. Each data point in the Tables below represents a mean of 5 or 6 replicates.
The procedure of Example 2 was repeated except that various co-active ingredients were tested for their ability to stimulate keratinocyte proliferation.
The procedure of Example 2 was repeated to test the effect of combination of an LDH inhibitor with another carboxylic acid on keratinocyte proliferation.

[3] = tested on: Keratinocyte Lactate Dehydrogenase; experiment: Keratinocyte lactate dehydrogenase (LDH) inhibition, cell lysate; assay type: biochemical, human
Procedure: as §1

[4] = Table 3, 0.313 mM, three days, read-out: Keratinocyte Proliferation (% increase over control)
[5] = Table 3, 0.625 mM, three days, read-out: Keratinocyte Proliferation (% increase over control)
[6] = Table 3, 1.25 mM, three days, read-out: Keratinocyte Proliferation (% increase over control)
[7] = Table 3, 2.5 mM, three days, read-out: Keratinocyte Proliferation (% increase over control)
[8] = Table 3, 5 mM, three days, read-out: Keratinocyte Proliferation (% increase over control)

Row | Molecule | Fibroblast Lactate Dehydrogenase Inhibition (% Inhibition) ([1]; 0.625 mM) [%] | Fibroblast Lactate Dehydrogenase Inhibition (% Inhibition) ([1]; 1.25 mM) [%] | Fibroblast Lactate Dehydrogenase Inhibition (% Inhibition) ([1]; 2.5 mM) [%] | Fibroblast Lactate Dehydrogenase Inhibition (% Inhibition) ([1]; 5 mM) [%] | other results
1 | NCC(=O)O [Glycinate] | 0 | 0 | 0 | 0 | 
2 | c1cn[nH]c1 [Pyrazole] | 0 | 0 | 0 | 0 | 
3 | O=C(O)CC(=O)O [Malonate] | 0 | 0 | 0 | 0 | 
4 | O=C(O)C(=O)C(=O)O [Ketomalonate] |  |  |  |  | activation at 313 µM [2, 4]: 23%; activation at 625 µM [2, 5]: 10%; activation at 1250 µM [2, 6]: 0%; activation at 2500 µM [2, 7]: 0%; activation at 5000 µM [2, 8]: 0%; Keratinocyte proliferation, % Increase Over Control ([2]; Table 7, single agent alone, 0.156 mM): 20%; Keratinocyte proliferation, % Increase Over Control ([2]; Table 7, single agent alone, 0.313 mM): 48%; Keratinocyte proliferation, % Increase Over Control ([2]; Table 7, single agent alone, 0.625 mM): 50%; Keratinocyte proliferation, % Increase Over Control ([2]; Table 7, single agent alone, 1.25 mM): 59%; Keratinocyte proliferation, % Increase Over Control ([2]; Table 7, single agent alone, 2.5 mM): 45%; Keratinocyte proliferation, % Increase Over Control ([2]; Table 7, single agent alone, 5.0 mM): 20%
5 | Methylpyrazole | 0 | 0 | 0 | 0 | 
6 | O=C(O)C(=O)O [Oxalate] | 54 | 71 | 85 | 89 | Keratinocyte Lactate Dehydrogenase Inhibition (% Inhibition) ([3]; 0.625 mM): 39%; Keratinocyte Lactate Dehydrogenase Inhibition (% Inhibition) ([3]; 1.25 mM): 58%; Keratinocyte Lactate Dehydrogenase Inhibition (% Inhibition) ([3]; 2.5 mM): 76%; Keratinocyte Lactate Dehydrogenase Inhibition (% Inhibition) ([3]; 5 mM): 87%; activation at 313 µM ([2]; read-out: Keratinocyte Proliferation (% increase over control), Table 3, 0.313 mM, three days): 18%; activation at 625 µM ([2]; read-out: Keratinocyte Proliferation (% increase over control), Table 3, 0.625 mM, three days): 27%; activation at 1250 µM ([2]; read-out: Keratinocyte Proliferation (% increase over control), Table 3, 1.25 mM, three days): 2%; activation at 2500 µM ([2]; read-out: Keratinocyte Proliferation (% increase over control), Table 3, 2.5 mM, three days): 0%; activation at 5000 µM ([2]; read-out: Keratinocyte Proliferation (% increase over control), Table 3, 5 mM, three days): 0%
7 | O=C(O)C[C@H](O)C(=O)O [L-malate] | 0 | 0 | 0 | 0 | 
8 | O=C(O)C(O)C(=O)O [Tartronate] |  |  |  |  | activation at 313 µM [2, 4]: 37%; activation at 625 µM [2, 5]: 45%; activation at 1250 µM [2, 6]: 51%; activation at 2500 µM [2, 7]: 50%; activation at 5000 µM [2, 8]: 17%; Keratinocyte proliferation, % Increase Over Control ([2]; Table 8, single agent alone, 0.156 mM): 44%; Keratinocyte proliferation, % Increase Over Control ([2]; Table 8, single agent alone, 0.313 mM): 69%; Keratinocyte proliferation, % Increase Over Control ([2]; Table 8, single agent alone, 0.625 mM): 58%; Keratinocyte proliferation, % Increase Over Control ([2]; Table 8, single agent alone, 1.25 mM): 67%; Keratinocyte proliferation, % Increase Over Control ([2]; Table 8, single agent alone, 2.5 mM): 76%; Keratinocyte proliferation, % Increase Over Control ([2]; Table 8, single agent alone, 5.0 mM): 21%
9 | C[C@H](O)C(=O)O [L-lactate] | 0 | 0 | 0 | 0 | 
10 | C[C@@H](O)C(=O)O [D-lactate] | 0 | 0 | 0 | 0 | 
11 | O=CC(=O)O [Glyoxylate] |  |  |  |  | activation at 313 µM [2, 4]: 33%; activation at 625 µM [2, 5]: 36%; activation at 1250 µM [2, 6]: 9%; activation at 2500 µM [2, 7]: 0%; activation at 5000 µM [2, 8]: 0%
12 | O=C(O)CO [Glycolate] | 0 | 0 | 0 | 0 | 
